Experimental findings from patent US11071737B2, “Drug inclusion complex, preparation thereof, and preparation method thereof” (priority 2015, dated 2021) are described below.

Data set [1] in a line: Inclusion ability of different concentrations and kinds of cyclodextrins for encapsulating API. The protocol: Different kinds of cyclodextrins were dissolved with a pH 1.2 aqueous hydrochloric acid solution (0.1N) to determine the saturation concentration of each cyclodextrin.
(1) A certain amount of α-, β- and γ-cyclodextrin were weighed and added into a 10 mL volumetric flask, then added aqueous hydrochloric acid solution of pH 1.2 gradually until reaching the scale of the flask, shocked and performed ultrasound to dissolve the cyclodextrin. The maximum amount of cyclodextrin capable of being dissolved in a 10 mL solution was recorded.
(2) 8% α-cyclodextrin solution, 1% β-cyclodextrin solution, 20% γ-cyclodextrin solution, 20%, 30%, and 40% sulfobutyl ether-β-cyclodextrin solution and 20%, 30%, and 40% hydroxypropyl-β-cyclodextrin solution were formulated with hydrochloric acid aqueous solution of pH 1.2.
A certain amount of API was weighed and added into an appropriate volume of the cyclodextrin solution. If API was completely dissolved, the solution was filtered with a 0.45 μm PTFE filter membrane, and pH was slowly adjusted to 4.0 with a 5N NaOH aqueous solution and a 0.1N NaOH aqueous solution, observing during the pH adjusting procedure. If the solution becomes turbid when adjusting the pH, try to reduce the concentration of API. The clear solution after the pH adjustment was left to stand to observe the state of the solution after standing for 2 hours, 4 hours, and 24 hours.

Data set [2] is described as follows: Formulation of drug-containing HP-β-CD solutions (concentration by HPLC, observation on standing). The conditions noted are these: 21 mg/ml added to 30% HP-β-CD solution pH 1.2, not completely dissolved, 0.45 μm PES filter.
Experimental: The drug was dissolved completely by ultrasound (ultrasonic frequency was 59 kHz).
4. pH adjustment: The pH of the drug solution was adjusted to about 6.0 with 5N NaOH aqueous solution and 0.1 N NaOH aqueous solution.

The structures appear in SMILES notation.

Turning to `O=C(Cc1ccc(-c2ccc(N3CCOCC3)cc2)cn1)NCc1cccc(F)c1.O=S(=O)(O)c1ccccc1` [KX2-361.benzene sulfonate], the “Solution phenomenon when pH is adjusted to 4” value in data set [1] (API 0.5 mg/ml in 20% γ-CD (174:1)) is “turbid”. In data set [2], the “concentration after filtering, calibrated with HPLC” value was 20660 µg/mL.

Regarding `OC[C@H]1O[C@@H]2O[C@H]3[C@H](O)[C@@H](O)[C@@H](O[C@H]4[C@H](O)[C@@H](O)[C@@H](O[C@H]5[C@H](O)[C@@H](O)[C@@H](O[C@H]6[C@H](O)[C@@H](O)[C@@H](O[C@H]7[C@H](O)[C@@H](O)[C@@H](O[C@H]1[C@H](O)[C@H]2O)O[C@@H]7CO)O[C@@H]6CO)O[C@@H]5CO)O[C@@H]4CO)O[C@@H]3CO` [α-cyclodextrin], in data set [1] (% (w/v), 10 mL), the “maximum solubility in aqueous hydrochloric acid solution of pH 1.2” value (“maximum solubility” below) is given as “about 8%”.

Consider `OC[C@H]1O[C@@H]2O[C@H]3[C@H](O)[C@@H](O)[C@@H](O[C@H]4[C@H](O)[C@@H](O)[C@@H](O[C@H]5[C@H](O)[C@@H](O)[C@@H](O[C@H]6[C@H](O)[C@@H](O)[C@@H](O[C@H]7[C@H](O)[C@@H](O)[C@@H](O[C@H]8[C@H](O)[C@@H](O)[C@@H](O[C@H]1[C@H](O)[C@H]2O)O[C@@H]8CO)O[C@@H]7CO)O[C@@H]6CO)O[C@@H]5CO)O[C@@H]4CO)O[C@@H]3CO` [β-cyclodextrin], for which the “maximum solubility” value in data set [1] (pH 1.2) is reported as “about 1%”.

Regarding `OC[C@H]1O[C@@H]2O[C@H]3[C@H](O)[C@@H](O)[C@@H](O[C@H]4[C@H](O)[C@@H](O)[C@@H](O[C@H]5[C@H](O)[C@@H](O)[C@@H](O[C@H]6[C@H](O)[C@@H](O)[C@@H](O[C@H]7[C@H](O)[C@@H](O)[C@@H](O[C@H]8[C@H](O)[C@@H](O)[C@@H](O[C@H]9[C@H](O)[C@@H](O)[C@@H](O[C@H]1[C@H](O)[C@H]2O)O[C@@H]9CO)O[C@@H]8CO)O[C@@H]7CO)O[C@@H]6CO)O[C@@H]5CO)O[C@@H]4CO)O[C@@H]3CO` [γ-cyclodextrin], in data set [1] (pH 1.2), the “maximum solubility” value is reported as “about 20%”.
